Test results published in patent US20120122908A1, “Novel C-4 Substituted Retinoids” (University of Maryland, priority 2000, published 2012).

Test system: PC-3 tumors
Experiment: Growth of PC-3 tumors in male nude mice
Assay type: in vivo
Settings: PC-3 xenografts
Description: FIG. 20: Effect of ATRA and VN/50A-1 on PC 3 Tumor Volumes in Male Nude Mice
The effects of VN/50A-1 on tumor growth was determined in mouse xenografts and compared to ATRA as the reference treatment (FIG. 20). Mice were grouped 35 days after cell inoculation when measurable tumor volume was approximately 500 mm^3. Total tumor volume in the control mice increased 5.4-fold over 7 weeks and tumor volume in the mice treated with ATRA increased by 3.2-fold (41% reduction compared with control). In the mice treated with VN/50A-1, tumor volume increased by 3.5-fold, which was 38% reduction versus control mice, which correlated well with accumulation of ATRA in plasma and in tumors. […] VN/50A-1 is completely eliminated from plasma within 3 hour of administration to mice (see FIG. 18). The inventive compounds with longer half-lives will have favorable bioavailability and are expected to be more efficacious.

## CC(C=CC1=C(C)C(n2ccnc2)CCC1(C)C)=CC=CC(C)=CC(=O)n1ccnc1 (stereo not drawn) [VN/50A-1]
  tumor weights versus control mice: significantly (P<0.05) lower
Over 7 weeks
  reduction of tumor volume compared with control: 38%
Over 7 weeks, control 5.4-fold
  increase of total tumor volume: 3.5 fold
